For one experiment, the target named is T1, FGFR1 (Homo sapiens, UniProt P11362).
T1 construct: made in house; host or cells: E. coli host derived from BL21, infected with T7 phage
In words: Kinase binding assay (Kd), FGFR1. The settings on record: 11-point 3-fold dilution, qPCR readout. Put shortly:
(§1)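 Kinase levels in bead eluates were read by qPCR after test compounds competed with an immobilized affinity ligand for T7 phage-expressed kinase. Binding ran 1 h at room temperature, and Kd values were fitted from 11-point dose–response curves with Hill slope set to −1.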

For the next experiment, the target named is T2, FGFR2 (Homo sapiens, UniProt P21802).
T2 construct: made in house; host or cells: E. coli host derived from BL21, infected with T7 phage
In words: Kinase binding assay (Kd), FGFR2. The note with it: 11-point 3-fold dilution, qPCR readout. The method, boiled down: as §1
For orientation: Quantitative PCR measures a nucleic acid by following its amplification.

For a further experiment, the target named is T3, FGFR3 (Homo sapiens, UniProt P22607).
T3 construct: made in house; host or cells: E. coli host derived from BL21, infected with T7 phage
In words: Kinase binding assay (Kd), FGFR3. The settings on record: 11-point 3-fold dilution, qPCR readout. Put shortly: as §1

The target of the next experiment is T4, FGFR3 (V555M) (Homo sapiens, UniProt P22607, V555M).
T4 construct: made in house; host or cells: E. coli host derived from BL21, infected with T7 phage
In words: Kinase binding assay (Kd), FGFR3 (V555M). The note with it: 11-point 3-fold dilution, qPCR readout. Put shortly:
as §1

Another experiment deals with T5, FGFR4 (Homo sapiens, UniProt P22455).
T5 construct: made in house; host or cells: E. coli host derived from BL21, infected with T7 phage
In words: Kinase binding assay (Kd), FGFR4. The note with it: 11-point 3-fold dilution, qPCR readout. Put shortly: as §1

The target of experiment [1] is T6, FGFR3-BAIAP2L1 Ba/F3 cells (Homo sapiens, UniProt P22607).
T6 construct: Ba/F3 FGFR3; FGFR3--BAIAP2L1 fusion; Advanced Cellular Dynamics, (Seattle, WA); fused on or other part: Q9UHR4 (BAR/IMD domain-containing adapter protein 2-like 1)
In words: Ba/F3 cell viability assay, FGFR3. Type of experiment: cell-based. The settings on record: FGFR3-BAIAP2L1 fusion Ba/F3, 48 hours, Cell Titer-Glo 2.0; read-out: Ba/F3 Cells FGFR3 (IC50 nM). The source says:
(§2) Experimental Purpose: Recombinant kinase fusions are transduced into parental Ba/F3, which becomes dependent upon this constitutive kinase activity for IL3-independent survival. Inhibition of kinase activity leads to cell death, which is monitored using CellTiter-Glo® 2.0 (Promega) which measures intracellular ATP concentration that in turn serves as a marker for viability. FGFR1-BCR Ba/F3 and FGFR3-BAIAP2L1 Ba/F3 were obtained from Advanced Cellular Dynamics (Seattle, Wash.)
(§3) Cell Viability Assay Procedure: Cell Titer-Glo® 2.0 Luminescent cell viability assay reagent was purchased from Promega (Madison, Wis.). FGFR1-BCR Ba/F3 and FGFR3-BAIAP2L1 Ba/F3 cells were cultured in RPMI1640 media supplemented with 10% fetal bovine serum. Cultures were maintained at 37° C. in a humidified atmosphere of 5% CO2 and 95% air.
(§4) Cells were plated in 96-well clear bottom/white plates (Corning #3903) at 10,000 cells/well in 100 μl of media, incubated overnight. The next day, test compound DMSO stock solutions were made at 10 mM and 2 μM final concentration. Compounds were then added to cells in a 9-dose, 10-fold dilution series starting at 30 μM with an HP 300e Digital Dispenser (each dose was applied in triplicate). DMSO was backfilled to each well up to 301 nL total volume of test compound+DMSO, and a total of 301 nL DMSO was added to a control/no test compound well in triplicate. The cells in cell culture plates were incubated with the compounds at 37° C. and 5% CO2 for 48 hours. Then 50 μl of Cell Titer Glo 2.0 reagent was added to each well of the cell culture plates. The contents were covered from light and mixed on an orbital shaker at room temperature for 10 min. Luminescence was recorded by a Synergy H1 Microplate Reader (Biotek, Winooski, Vt.). Cells were assessed as a percentage of DMSO only treated control cells. Curves were plotted and IC50 values were calculated using the GraphPad Prism 8 program based on a sigmoidal dose-response equation (4 parameter).
In general terms: In ATP-based viability assays light output follows the ATP content of the culture.

The next experiment addresses T7, FGFR1-BCR Ba/F3 cells (Homo sapiens, UniProt P11362).
T7 construct: Ba/F3 FGFR1; FGFR1-BCR; Advanced Cellular Dynamics, (Seattle, WA); fused on or other part: P11274 (Breakpoint cluster region protein)
In words: Ba/F3 cell viability assay, FGFR1. Type of experiment: cell-based. The note with it: FGFR1-BCR Ba/F3, 48 hours, Cell Titer-Glo 2.0; read-out: Ba/F3 Cells FGFR1 (IC50 nM).
Description: as §2, §3, §4

The test system of experiment [2] is SNU-16 cells (Gastric Carcinoma, FGFR2 amplification). In words: Cancer cell line cell viability assay, SNU-16. Type of experiment: cell-based. The settings on record: Homo sapiens, 72 hours, Cell Titer-Glo 2.0, read-out: Cancer Cell Viability Assays SNU-16 (IC50 nM). The source says:
(§5) [table] To detect the change of intracellular ATP by Cell Titer-Glo® and to evaluate the inhibitory effect of the compounds on cancer cell lines by determining the in vitro IC50 value of the compounds. Cell Titer-Glo® 2.0 Luminescent cell viability assay reagent was purchased from Promega (Madison, Wis.). RT112/84, SNU-16, and KG-1 cell lines were purchased from American Type Culture Collection (Manassas, Va.). UM-UC-14 cell line was purchased from Sigma (St. Louis, Mo.). RT112/84, UM-UC-14, SNU-16, and KG-1 cells were cultured in RPMI1640 media supplemented with 10% fetal bovine serum. Cultures were maintained at 37° C. in a humidified atmosphere of 5% CO2 and 95% air. Cell Viability Assay Procedure: Cells were plated in 96-well clear bottom/white plates (Corning #3903) at 10,000 cells/well in 100 μl of media, incubated overnight. The next day, test compound DMSO stock solutions were made at 10 mM and 2 μM final concentration. Compounds were then added to cells in a 9-dose, […] dilution series starting at 30 μM with an HP 300e Digital Dispenser (each dose was applied in triplicate). DMSO was backfilled to each well up to 301 nL total volume of test compound+DMSO, and a total of 301 nL DMSO was added to a control/no test compound well in triplicate. The cells in cell culture plates were incubated with the compounds at 37° C. and 5% CO2 for 72 hours. Then 50 μl of Cell Titer Glo 2.0 reagent was added to each well of the cell culture plates. The contents were covered from light and mixed on an orbital shaker at room temperature for 10 min. Luminescence was recorded by a Synergy H1 Microplate Reader (Biotek, Winooski, Vt.). Cells were assessed as a percentage of DMSO only treated control cells. Curves were plotted and IC50 values were calculated using the GraphPad Prism 8 program based on a sigmoidal dose-response equation (4 parameter).

Experiment [3] relates to RT112/84 cells (Bladder Cancer, FGFR3-TACC3 fusion). In words: Cancer cell line cell viability assay, RT112/84. The settings on record: Homo sapiens, 72 hours, Cell Titer-Glo 2.0, read-out: Cancer Cell Viability Assays RT112/84 (IC50 nM). Type of experiment: cell-based.
Description: as §5

Structures are written as SMILES.

T1 sequence (P11362 22-822): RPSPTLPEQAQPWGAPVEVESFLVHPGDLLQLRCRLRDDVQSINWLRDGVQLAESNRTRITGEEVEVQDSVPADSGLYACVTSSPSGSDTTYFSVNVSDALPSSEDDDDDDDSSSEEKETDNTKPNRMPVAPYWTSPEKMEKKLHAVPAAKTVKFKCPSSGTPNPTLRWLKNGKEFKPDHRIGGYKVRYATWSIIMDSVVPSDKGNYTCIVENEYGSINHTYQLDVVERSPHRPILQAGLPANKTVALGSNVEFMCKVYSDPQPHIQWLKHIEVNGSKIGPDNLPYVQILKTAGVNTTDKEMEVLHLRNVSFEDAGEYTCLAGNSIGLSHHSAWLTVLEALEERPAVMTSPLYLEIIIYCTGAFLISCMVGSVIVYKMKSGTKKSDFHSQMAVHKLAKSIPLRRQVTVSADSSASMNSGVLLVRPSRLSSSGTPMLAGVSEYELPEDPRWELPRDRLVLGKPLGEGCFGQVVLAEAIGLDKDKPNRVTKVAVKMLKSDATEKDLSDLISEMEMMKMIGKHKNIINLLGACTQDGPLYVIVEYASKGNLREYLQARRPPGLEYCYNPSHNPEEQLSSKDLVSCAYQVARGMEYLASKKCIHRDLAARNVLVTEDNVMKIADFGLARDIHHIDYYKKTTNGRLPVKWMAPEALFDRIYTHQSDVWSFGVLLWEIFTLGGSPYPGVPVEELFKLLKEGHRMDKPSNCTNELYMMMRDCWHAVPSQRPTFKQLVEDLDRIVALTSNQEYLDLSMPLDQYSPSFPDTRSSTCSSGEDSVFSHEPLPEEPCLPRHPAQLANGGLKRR
T4 sequence (P22607 23-806 V555M): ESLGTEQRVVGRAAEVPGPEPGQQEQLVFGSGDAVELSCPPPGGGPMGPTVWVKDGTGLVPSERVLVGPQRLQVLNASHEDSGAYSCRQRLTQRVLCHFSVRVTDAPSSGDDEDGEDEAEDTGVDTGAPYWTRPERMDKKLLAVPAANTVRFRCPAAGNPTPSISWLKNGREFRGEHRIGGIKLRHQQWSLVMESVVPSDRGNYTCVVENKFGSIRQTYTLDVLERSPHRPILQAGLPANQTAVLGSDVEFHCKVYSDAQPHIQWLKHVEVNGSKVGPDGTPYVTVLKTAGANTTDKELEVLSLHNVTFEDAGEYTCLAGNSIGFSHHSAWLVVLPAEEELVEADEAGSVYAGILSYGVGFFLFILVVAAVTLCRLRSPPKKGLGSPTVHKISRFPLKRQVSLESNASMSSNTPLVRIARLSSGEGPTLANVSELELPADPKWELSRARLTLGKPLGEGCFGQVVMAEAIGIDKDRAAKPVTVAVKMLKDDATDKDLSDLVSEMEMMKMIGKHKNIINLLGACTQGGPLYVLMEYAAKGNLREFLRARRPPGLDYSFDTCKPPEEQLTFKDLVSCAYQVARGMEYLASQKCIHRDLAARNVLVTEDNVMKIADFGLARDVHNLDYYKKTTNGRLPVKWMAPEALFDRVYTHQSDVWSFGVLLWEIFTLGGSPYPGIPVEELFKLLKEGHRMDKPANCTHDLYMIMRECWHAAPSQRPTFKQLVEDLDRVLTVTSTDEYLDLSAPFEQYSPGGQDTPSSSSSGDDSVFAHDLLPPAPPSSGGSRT
T3 sequence (P22607 23-806): as the sequence (P22607 23-806 V555M) above, with M533V counted along it
T6 sequence (P22607 whole entry, change not shown, the tested form may be a part): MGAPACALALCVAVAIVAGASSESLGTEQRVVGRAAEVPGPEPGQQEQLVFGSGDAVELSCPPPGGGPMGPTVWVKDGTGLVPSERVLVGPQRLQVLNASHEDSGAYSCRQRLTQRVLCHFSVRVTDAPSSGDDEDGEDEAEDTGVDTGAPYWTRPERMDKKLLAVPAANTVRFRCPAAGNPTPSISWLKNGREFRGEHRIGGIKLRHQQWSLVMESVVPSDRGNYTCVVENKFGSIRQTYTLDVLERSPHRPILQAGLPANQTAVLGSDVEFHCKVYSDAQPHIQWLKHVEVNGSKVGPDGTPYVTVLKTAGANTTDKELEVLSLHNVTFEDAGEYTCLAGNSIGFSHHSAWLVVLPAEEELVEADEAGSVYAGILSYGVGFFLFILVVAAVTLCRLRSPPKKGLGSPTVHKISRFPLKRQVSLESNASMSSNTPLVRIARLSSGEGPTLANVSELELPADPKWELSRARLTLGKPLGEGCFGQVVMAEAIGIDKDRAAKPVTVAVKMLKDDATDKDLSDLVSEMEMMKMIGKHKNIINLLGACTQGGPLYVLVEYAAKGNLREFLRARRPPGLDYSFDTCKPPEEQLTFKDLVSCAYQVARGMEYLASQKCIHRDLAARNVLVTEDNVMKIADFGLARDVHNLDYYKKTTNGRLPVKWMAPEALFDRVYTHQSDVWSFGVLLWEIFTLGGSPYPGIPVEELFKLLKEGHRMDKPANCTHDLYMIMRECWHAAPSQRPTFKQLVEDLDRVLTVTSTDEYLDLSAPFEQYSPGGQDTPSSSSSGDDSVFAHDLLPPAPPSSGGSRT
T5 sequence (P22455 22-802): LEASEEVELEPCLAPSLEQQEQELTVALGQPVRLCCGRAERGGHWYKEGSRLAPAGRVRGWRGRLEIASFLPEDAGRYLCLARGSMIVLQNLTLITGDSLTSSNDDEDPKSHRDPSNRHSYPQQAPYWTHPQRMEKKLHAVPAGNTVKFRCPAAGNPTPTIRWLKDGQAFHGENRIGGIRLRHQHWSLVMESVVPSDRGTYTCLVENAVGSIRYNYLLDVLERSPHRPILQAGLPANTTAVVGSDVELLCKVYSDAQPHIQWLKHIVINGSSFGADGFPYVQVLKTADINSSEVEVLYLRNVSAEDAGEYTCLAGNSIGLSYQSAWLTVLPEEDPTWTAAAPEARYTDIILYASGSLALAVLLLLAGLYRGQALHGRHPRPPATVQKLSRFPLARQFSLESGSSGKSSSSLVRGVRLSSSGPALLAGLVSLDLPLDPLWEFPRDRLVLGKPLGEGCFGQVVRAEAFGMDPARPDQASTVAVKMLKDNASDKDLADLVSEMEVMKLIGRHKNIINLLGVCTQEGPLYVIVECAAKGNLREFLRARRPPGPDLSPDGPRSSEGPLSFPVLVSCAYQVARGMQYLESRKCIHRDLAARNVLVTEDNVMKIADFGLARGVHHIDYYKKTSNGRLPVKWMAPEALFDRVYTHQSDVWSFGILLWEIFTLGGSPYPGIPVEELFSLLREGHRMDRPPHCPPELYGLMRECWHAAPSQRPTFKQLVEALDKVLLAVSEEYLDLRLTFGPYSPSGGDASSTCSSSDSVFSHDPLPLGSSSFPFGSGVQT
T7 sequence (P11362 whole entry, change not shown, the tested form may be a part): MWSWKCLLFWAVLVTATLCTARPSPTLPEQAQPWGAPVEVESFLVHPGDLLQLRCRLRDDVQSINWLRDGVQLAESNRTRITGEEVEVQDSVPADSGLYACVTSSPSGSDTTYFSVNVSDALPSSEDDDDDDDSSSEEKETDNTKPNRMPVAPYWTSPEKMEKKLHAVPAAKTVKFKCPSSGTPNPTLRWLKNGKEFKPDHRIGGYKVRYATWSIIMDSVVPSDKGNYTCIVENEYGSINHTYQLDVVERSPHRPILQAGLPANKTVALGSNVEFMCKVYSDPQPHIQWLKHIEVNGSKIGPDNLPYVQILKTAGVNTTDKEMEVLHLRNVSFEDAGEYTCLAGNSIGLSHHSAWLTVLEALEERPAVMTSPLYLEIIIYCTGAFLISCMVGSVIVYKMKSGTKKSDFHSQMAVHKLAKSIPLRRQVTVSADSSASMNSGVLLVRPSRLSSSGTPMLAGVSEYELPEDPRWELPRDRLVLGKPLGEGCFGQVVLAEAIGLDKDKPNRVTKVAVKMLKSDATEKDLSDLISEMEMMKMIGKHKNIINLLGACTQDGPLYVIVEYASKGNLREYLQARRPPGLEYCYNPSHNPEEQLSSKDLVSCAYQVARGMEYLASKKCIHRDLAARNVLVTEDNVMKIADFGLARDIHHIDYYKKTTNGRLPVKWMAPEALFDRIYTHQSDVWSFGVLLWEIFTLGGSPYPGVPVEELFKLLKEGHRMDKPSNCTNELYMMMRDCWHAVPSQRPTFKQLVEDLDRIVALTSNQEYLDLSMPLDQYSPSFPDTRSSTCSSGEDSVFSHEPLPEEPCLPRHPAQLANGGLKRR
T2 sequence (P21802 22-821): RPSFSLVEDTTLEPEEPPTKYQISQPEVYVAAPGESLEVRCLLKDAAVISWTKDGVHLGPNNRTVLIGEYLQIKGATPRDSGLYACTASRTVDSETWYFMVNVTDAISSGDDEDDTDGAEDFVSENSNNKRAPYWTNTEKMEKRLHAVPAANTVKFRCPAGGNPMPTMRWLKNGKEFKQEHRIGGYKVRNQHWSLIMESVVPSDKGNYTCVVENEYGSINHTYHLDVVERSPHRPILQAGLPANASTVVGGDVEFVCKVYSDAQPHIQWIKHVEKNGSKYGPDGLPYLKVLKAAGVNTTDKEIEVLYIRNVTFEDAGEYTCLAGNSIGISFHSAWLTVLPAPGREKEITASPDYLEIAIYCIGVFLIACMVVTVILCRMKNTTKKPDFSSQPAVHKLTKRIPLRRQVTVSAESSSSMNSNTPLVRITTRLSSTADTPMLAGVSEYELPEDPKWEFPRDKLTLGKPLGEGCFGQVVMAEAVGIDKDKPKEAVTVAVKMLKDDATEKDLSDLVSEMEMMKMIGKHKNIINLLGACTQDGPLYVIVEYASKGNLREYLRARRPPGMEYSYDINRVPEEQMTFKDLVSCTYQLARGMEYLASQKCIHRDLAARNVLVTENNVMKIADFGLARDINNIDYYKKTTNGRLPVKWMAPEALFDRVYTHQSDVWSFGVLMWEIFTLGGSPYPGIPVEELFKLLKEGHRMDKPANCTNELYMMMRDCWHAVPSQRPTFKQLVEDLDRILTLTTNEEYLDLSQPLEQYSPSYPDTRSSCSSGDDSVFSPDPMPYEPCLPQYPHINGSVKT

With `Cc1cnc(Nc2ccc(N=S(C)(C)=O)cc2)nc1-c1c[nH]c2ccccc12` [Example 11, N-[4-[[dimethyl(oxo)-λ^6-sulfanylidene]amino]phenyl]-4-(1H-indol-3-yl)-5-methyl-pyrimidin-2-amine], the Kd is 350 nM at FGFR1; 3300 nM at FGFR2; 370 nM at FGFR3; 57 nM at FGFR3 (V555M); 57 nM on FGFR4. Also, the GI50 in [1] came out at 15 nM; on FGFR1-BCR Ba/F3 cells, 115 nM. Further, the results for the IC50 in experiment [2] and in [3] were 108 nM and 153 nM, respectively.

As for `COc1cc(Nc2ncc(C)c(-c3c[nH]c4ccccc34)n2)ccc1N=S(C)(C)=O` [Example 26, N-[4-[[dimethyl(oxo)-λ^6-sulfanylidene]amino]-3-methoxy-phenyl]-4-(1H-indol-3-yl)-5-methyl-pyrimidin-2-amine], the Kd amounted to 42 nM at FGFR1; 2 nM on FGFR2; 10 nM on FGFR3; 1 nM on FGFR3 (V555M); 91 nM at FGFR4. In addition, the GI50 in [1] was determined as 15 nM; at FGFR1-BCR Ba/F3 cells it was 75 nM. The IC50 was found to be 173 nM in experiment [2] and 111 nM in experiment [3].

`Cc1cnc(Nc2ccc(N=S(C)(C)=O)c(OCCN3CCOCC3)c2)nc1-c1c[nH]c2ccccc12` [Example 27, N-[4-[[dimethyl(oxo)-λ^6-sulfanylidene]amino]-3-(2-morpholinoethoxy)phenyl]-4-(1H-indol-3-yl)-5-methyl-pyrimidin-2-amine]: the Kd at FGFR1 worked out at 2 nM; at FGFR2 it was 1 nM; on FGFR3 it was 2 nM; at FGFR4, 110 nM. Moreover, the GI50 on FGFR1-BCR Ba/F3 cells amounted to 11 nM. Further, the values for the IC50 in [2] and in experiment [3] were 16 nM and 43 nM, respectively.

In the case of `COc1cc(Nc2ncc(C)c(-c3c[nH]c4c(C)cccc34)n2)ccc1N=S(C)(C)=O` [Example 31, N-[4-[[dimethyl(oxo)-λ^6-sulfanylidene]amino]-3-methoxy-phenyl]-5-methyl-4-(7-methyl-1H-indol-3-yl)pyrimidin-2-amine], the Kd on FGFR1 was found to be 1 nM; at FGFR2, 3 nM; on FGFR3, 5 nM; on FGFR3 (V555M), 0.5 nM; at FGFR4, 62 nM. Besides, the GI50 in experiment [1] came out at 40 nM; at FGFR1-BCR Ba/F3 cells it was 2 nM. Also, the IC50 amounted to 5 nM in experiment [2] and 23 nM in experiment [3].

As for `C=CC(=O)Nc1cc2ccn(-c3nc(Nc4ccc(N=S(C)(C)=O)cc4)ncc3Cl)c2cc1C` [Example 85, N-[1-[5-chloro-2-[4-[[dimethyl(oxo)-λ^6-sulfanylidene]amino]anilino]-pyrimidin-4-yl]-6-methyl-indol-5-yl]prop-2-enamide], the Kd at FGFR1 was found to be 330 nM; on FGFR2 it was 89 nM; at FGFR3, 180 nM; at FGFR3 (V555M), 16 nM; on FGFR4 it was 2300 nM. Moreover, the GI50 in experiment [1] worked out at 459 nM; at FGFR1-BCR Ba/F3 cells it was 171 nM.

With `C=CC(=O)Nc1ccc2c(-c3nc(Nc4ccc(N=S(C)(C)=O)c(F)c4)ncc3Cl)cn(C)c2c1` [Example 93, N-[3-[5-Chloro-2-[4-[[dimethyl(oxo)-λ^6-sulfanylidene]amino]-3-fluoro-anilino]pyrimidin-4-yl]-1-methyl-indol-6-yl]prop-2-enamide], the values for the GI50 (in experiment [1]; on FGFR1-BCR Ba/F3 cells) were 14 nM and 1 nM, respectively.

Consider `C=CC(=O)Nc1ccc2c(-c3nc(Nc4ccc(N=S(C)(C)=O)nc4)ncc3Cl)cn(C)c2c1` [Example 94, N-[3-[5-Chloro-2-[[6-[[dimethyl(oxo)-λ^6-sulfanylidene]amino]-3-pyridyl]amino]pyrimidin-4-yl]-1-methyl-indol-6-yl]prop-2-enamide], for which the figures for the GI50 (in [1]; at FGFR1-BCR Ba/F3 cells) were 23 nM and 4 nM, respectively.

One may read the Kd as the free concentration of one partner at which half of the binding sites on the other are occupied at equilibrium, for simple one-to-one binding. Low readings indicate a tighter complex, high ones a looser complex.

Values taken from patent US20230115945A1, “AMINOPYRIMIDINE COMPOUNDS” (TYRA BIOSCIENCES, INC., priority 2019, published 2023).
